Laboratory results: patent publication US8507251B2, “Medium and method for culturing Mycobacterium avium subspecies paratuberculosis” (priority 2009, dated 2013)

Assays:
[1] = tested on: MAP strain Dominic (ATCC 43545); experiment: radiometric 14CO2 BACTEC 460 growth culture, MAP Dominic; format: cell-based, Mycobacterium avium subspecies paratuberculosis
[2] = tested on: MAP strain UCF-4; experiment: radiometric 14CO2 BACTEC 460 growth culture, MAP UCF-4; format: cell-based, Mycobacterium avium subspecies paratuberculosis
[3] = tested on: MAP ATCC 19698; experiment: radiometric 14CO2 BACTEC 460 growth culture, MAP 19698; format: cell-based, Mycobacterium avium subspecies paratuberculosis
[4] = tested on: MAP 303; experiment: radiometric 14CO2 BACTEC 460 growth culture, MAP 303; format: cell-based, Mycobacterium avium subspecies paratuberculosis
[5] = tested on: M. avium ATCC 25291; experiment: radiometric 14CO2 BACTEC 460 growth culture, M. avium 25291; format: cell-based, M. avium subspecies avium
[6] = tested on: M. avium 101; experiment: radiometric 14CO2 BACTEC 460 growth culture, M. avium 101; format: cell-based, M. avium subspecies avium
[7] = tested on: eight mycobacterial strains
[8] = tested on: single MAP strain; conditions: cited from earlier work
[9] = tested on: M. tuberculosis, M. Kansasii, M. scrofulaceum, M. avium and M. intracellulare; conditions: 5 mg/ml; cited from earlier work
[10] = tested on: bacteria (including M. phlei) and fungal growth; conditions: 100-250 μg/ml; cited from earlier work

Structure (SMILES): CN1CCCC1c1cccnc1 (stereo not drawn) [Nicotine, nicotine, reference compound]
- percent change from control cGI (% ΔcGI / % −ΔcGI) ([1]; 1 μg/ml, first of the two values (two experiments)): −2%
- percent change from control cGI (% ΔcGI / % −ΔcGI) ([1]; 1 μg/ml, second of the two values (two experiments)): 0%
- percent change from control cGI (% ΔcGI / % −ΔcGI) ([1]; 4 μg/ml, first of the two values (two experiments)): 29%
- percent change from control cGI (% ΔcGI / % −ΔcGI) ([1]; 4 μg/ml, second of the two values (two experiments)): 30%
- percent change from control cGI (% ΔcGI / % −ΔcGI) ([1]; 16 μg/ml, first of the two values (two experiments)): 1%
- percent change from control cGI (% ΔcGI / % −ΔcGI) ([1]; 16 μg/ml, second of the two values (two experiments)): 6%
- percent change from control cGI (% ΔcGI / % −ΔcGI) ([1]; 64 μg/ml, first of the two values (two experiments)): −12%
- percent change from control cGI (% ΔcGI / % −ΔcGI) ([1]; 64 μg/ml, second of the two values (two experiments)): 7%
- percent change from control cGI (% ΔcGI / % −ΔcGI) ([2]; 1 μg/ml): −10%
- percent change from control cGI (% ΔcGI / % −ΔcGI) ([2]; 4 μg/ml): −10%
- percent change from control cGI (% ΔcGI / % −ΔcGI) ([2]; 16 μg/ml): −6%
- percent change from control cGI (% ΔcGI / % −ΔcGI) ([2]; 64 μg/ml): 9%
- percent change from control cGI (% ΔcGI / % −ΔcGI) ([3]; 1 μg/ml): −20%
- percent change from control cGI (% ΔcGI / % −ΔcGI) ([3]; 4 μg/ml): −20%
- percent change from control cGI (% ΔcGI / % −ΔcGI) ([3]; 16 μg/ml): −21%
- percent change from control cGI (% ΔcGI / % −ΔcGI) ([3]; 64 μg/ml): −11%
- percent change from control cGI (% ΔcGI / % −ΔcGI) ([4]; 1 μg/ml): 7%
- percent change from control cGI (% ΔcGI / % −ΔcGI) ([4]; 4 μg/ml): 8%
- percent change from control cGI (% ΔcGI / % −ΔcGI) ([4]; 16 μg/ml): −22%
- percent change from control cGI (% ΔcGI / % −ΔcGI) ([4]; 64 μg/ml): 7%
- percent change from control cGI (% ΔcGI / % −ΔcGI) ([5]; 1 μg/ml): 106%
- percent change from control cGI (% ΔcGI / % −ΔcGI) ([5]; 4 μg/ml): 63%
- percent change from control cGI (% ΔcGI / % −ΔcGI) ([5]; 16 μg/ml): 143%
- percent change from control cGI (% ΔcGI / % −ΔcGI) ([5]; 64 μg/ml): 112%
- percent change from control cGI (% ΔcGI / % −ΔcGI) ([6]; 1 μg/ml): 55%
- percent change from control cGI (% ΔcGI / % −ΔcGI) ([6]; 4 μg/ml): 0%
- percent change from control cGI (% ΔcGI / % −ΔcGI) ([6]; 16 μg/ml): 15%
- percent change from control cGI (% ΔcGI / % −ΔcGI) ([6]; 64 μg/ml): 5%
- effect on growth (in words) [7]: no effect on growth
- effect on MAP growth (in words) ([8]; 2 μg/ml, BACTEC 460 with OADC supplementation): Bactericidal inhibition
- effect on MAP growth in culture (in words) ([8]; solitary MAP strain, pure nicotine): inhibited MAP growth
- effect on growth (in words) [9]: Enhanced growth
- effect on growth (in words) [10]: inhibition
